Assay results published in BindingDB's records for doi:10.1016/S0960-894X(01)80770-8 (1993).
Structures can show the parent of a compound that is named as a salt.

What was measured:
[1] = biological target: S-adenosylmethionine decarboxylase proenzyme (Escherichia coli) (UniProt P0A7F6); assay: Compound was evaluated for its inhibitory activity against AdoMet-DC from Escherichia coli
[2] = Compound was evaluated to inactivate the bacterial AdoMet-DC

S-adenosylmethionine decarboxylase proenzyme (Escherichia coli), sequence (P0A7F6 whole entry, looked up): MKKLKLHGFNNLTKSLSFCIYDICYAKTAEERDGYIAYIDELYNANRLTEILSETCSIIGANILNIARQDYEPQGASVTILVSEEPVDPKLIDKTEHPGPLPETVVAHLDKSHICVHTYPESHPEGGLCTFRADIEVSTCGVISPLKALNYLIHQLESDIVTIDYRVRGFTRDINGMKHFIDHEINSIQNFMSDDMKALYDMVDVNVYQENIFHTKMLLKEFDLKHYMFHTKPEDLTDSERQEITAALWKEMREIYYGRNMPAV

Row | IC50 [1] | Ki [2] | SMILES
1 | 50 µM |  | C[S+](CCCC(N)C#N)C[C@H]1O[C@@H](n2cnc3c(N)ncnc32)[C@H](O)[C@@H]1O (stereo partly drawn) [2-amino-5-({[(2S,3S,4R)-5-(6-amino-9H-purin-9-yl)-3,4-dihydroxyoxolan-2-yl]methyl}(methyl)-sulfanyl)pentanenitrile dihydrobromide]
2 | 205 µM |  | N#CC(N)CCCSC[C@H]1O[C@@H](n2cnc3c(N)ncnc32)[C@H](O)[C@@H]1O (stereo not given in full)
3 | 179 µM |  | N#CC(N)CCSC[C@H]1O[C@@H](n2cnc3c(N)ncnc32)[C@H](O)[C@@H]1O (stereo not given in full)
4 | 9 µM | 31.1 µM | C[S+](CCC(N)C#N)C[C@H]1O[C@@H](n2cnc3c(N)ncnc32)[C@H](O)[C@@H]1O (stereo partly drawn) [2-amino-4-({[(2S,3S,4R)-5-(6-amino-9H-purin-9-yl)-3,4-dihydroxyoxolan-2-yl]methyl}(methyl)-sulfanyl)butanenitrile dihydrobromide]
